# Read-outs that look alike come from different tables or passages of the source.
# Columns and labels:
# ABL1 T315I = molecular target: T1, ABL1 T315I (Homo sapiens, UniProt P00519, T315I); test: Z′-LYTE assay, ABL1 T315I; type: biochemical
# T1 construct: The ABL1 variant polypeptides utilized contained the same polypeptide as the “isoahABL1(wt)” polypeptide except that each contained one corresponding amino acid substitution
# From the text: (§1) This Example describes a cell-free assay utilized to identify candidate compounds that bind to and inhibit protein kinase (PK) and PK variants. One assay is referred to as a “Z′-LYTE assay” and is an example of a labeled peptide cleavage assay. The fluorescence-based assay relies on the differential sensitivity of a small, dual-end-labelled peptide to cleavage by a protease, dependent on the phosphorylation state of the peptide (FIG. 1). The peptide substrate is end-labelled with two distinct fluorophores that comprise a Fluorescence Resonance Energy Transfer (FRET) pair.
# (§2) In the absence of inhibitor, the kinase transfers the gamma-phosphate from ATP to the single, unique tyrosine, serine or threonine in the synthetic FRET peptide. The reaction conditions are titrated such that 10-40% of the peptide substrate is phosphorylated. In a second reaction, a site-specific protease that only recognizes and cleaves the non-phosphorylated FRET peptide is added. Cleavage interferes with FRET between the donor (i.e., coumarin) and the acceptor (i.e., fluorescein) fluorophores on the FRET-peptide substrate, unlike the phosphorylated, uncleaved peptide.
# (§3) The Test Compounds are screened in 1% DMSO (final) in the well.
# (§4) All Peptide/Kinase Mixtures are diluted to a 2× working concentration in the appropriate Kinase Buffer. The 2×ABL1 polypeptide/Tyr 02 substrate peptide mixture is prepared in 50 mM HEPES pH 7.5, 0.01% BRIJ-35, 10 mM MgCl2, 1 mM EGTA. The final 10 μL Kinase Reaction contains 0.3-1.2 ng ABL1 (or 1.36-6 ng ABL1(T315I)) and 2 μM Tyr 02 in 50 mM HEPES, pH 7.5, 0.01% BRIJ-35, 10 mM MgCl2, 1 mM EGTA. After the 1-hour Kinase Reaction incubation, 5 μL of a 1:128 dilution of Development Reagent A is added. The ABL1(wt) polypeptide utilized for the assay described in this Example was the “isoahABL1(wt)” polypeptide described herein (SEQ ID NO:4), which is referred to as “ABL1” in Table 1 and “ABL1(wt)” or “WT” in Table 3 of this Example. The ABL1 variant polypeptides utilized contained the same polypeptide as the “isoahABL1(wt)” polypeptide except that each contained one corresponding amino acid substitution chosen from E255K, F317I, F317L, G250E, T315I or Y253F. […]
# (§5) All ATP Solutions are diluted to a 4× working concentration in Kinase Buffer (50 mM HEPES, pH 7.5, 0.01% BRIJ-35, 10 mM MgCl2, 1 mM EGTA). The ATP Km apparent (Km app) is previously determined using a Z′-LYTE assay.
# (§6) Bar-coded Corning, low volume NBS, black 384-well plate (Corning Cat. #4514) • 1. […] Read on fluorescence plate reader and analyze the data
# ABL1(wt) = ABL1(wt) (Homo sapiens, UniProt P00519); test: Z′-LYTE assay (labeled peptide cleavage), ABL1(wt); type: biochemical
# From the text: as §1, §2, §3, §4, §5, §6
# A known inhibitor control standard curve, 10-point titration, is run for each individual kinase on the same plate as the kinase to ensure the kinase is inhibited within an expected IC50 range previously determined. […]
# NALM-21 = test: In vitro cytotoxic activity (CellTiterGlo), NALM-21 (ALL); type: cell-based; conditions: Homo sapiens; 48-hours; read-out: NALM-21 LD50
# Description: (§7) Non-metabolized targeted toxicity, or general toxicity, of compounds was assessed by treating a panel of selected cell lines in culture with a dilution series of test compounds and the lethal dose that will kill half of the cells (i.e., the LD50) was determined. Compounds herein were assayed against a panel of cytokine-independent Philadelphia chromosome (BCR-ABL1 translocation) positive (Ph+) leukemia and lymphoma cell lines along with several control cell lines that were ABL1-independent. The panel included murine cell lines BaF3-wildtype (wt), BaF3-mutants (BaF3-wt cells engineered to be reliant on various kinase domain mutations with the BCR-ABL1 fusion protein), and various ALL and CML human cell lines, including SD-1, TOM-1, NALM-21, K562, Jeko-1, BV173, and KCL-22.
# (§8) To test the cytotoxic activity of compounds herein, 1.6E4 cells were plated in 96-well plates at a final volume of 135 μL per well. Compounds were then added to the wells. In general, final concentrations of compounds started at a maximum concentration of […] and were diluted by half-log concentrations down to a final concentration of 0.316 nM. However, different cell lines required varying drug concentration ranges for optimal LD50 calculations. To create half-log dilutions, 40 mM DMSO solutions of compounds were diluted in half-log iterations to generate 400× starting concentration of compounds in DMSO. The 400× compound solutions were then diluted by 40-fold by adding 5 μL of 400× DMSO stock to 195 μL cell culture media, generating 10× drug concentrations in cell culture media. Then 15 μL of the 10× drug solutions were added to the 135 μL volume of cell suspension, resulting in 1× final drug concentrations with 0.25% DMSO in all wells. 48-hours after adding compounds, cells were measured for relative viability to generate cytotoxicity curves associated with the varying concentrations of compounds. […] LD50 values were measured by normalizing luminescence intensity to the lowest drug concentration. GraphPad Prism was used to plot and calculate LD50 values from the cytotoxic kill curves. Curves were fit to a non-linear regression model, with compound concentration vs. response and variable slope (four parameters).
# K562 = test: In vitro cytotoxic activity (CellTiterGlo), K562 (CML); type: cell-based; conditions: Homo sapiens, 48-hours, read-out: K562 LD50
# Description: as §7, §8
# [1] = non-GLP multi-dose toxicity study (dose escalation, daily IP injection); type: in vivo, mouse (6-week-old Balb/c females); conditions: mice; for tolerability: daily IP
# Description: An initial non-GLP multi-dose toxicity study of Cmpd11 and Cmpd66 was performed, which included a comparison to COM1 and COM3 clinical compounds. […] Body weights were recorded 2× weekly for healthy mice followed by weekly in the recovery phase. Blood draws were taken, retro-orbitally, every other week (for a total of three blood draws per group) to determine the plasma levels of compounds throughout the duration of the study (unless mice were euthanized prior to completion of the 28-day dosing period). […] Any animals showing more than 9% weight loss were weighed every day and animals were euthanized after a weight loss of 15% or more or evidence of high distress (e.g., listless, hunched posture, high grimace score). Also, plasma samples were drawn at euthanasia. Control groups included vehicle only and no manipulation.
# A summary of the study is illustrated in FIG. 14. There are six groups with 90 mice total and following is an overview of groups for the study.
# The following are criteria for dose escalation and staggering of group starting points. Animals in each group are monitored after the initial dose for 3-4 days, and if there is no observed dose-limiting toxicity (DLT), then a separate cohort of naïve animals are administered the next higher dose level. Note that each cohort of animals receives the same drug and drug dose for the duration of the 28-day dosing period unless euthanasia is required. Animals in the second, dose-escalated group, are then monitored for 3-4 days, and if there is no observed DLT, animals from a fresh cohort are administered the next higher dose level, while continuing with the former cohorts up to 5 dose levels total. Animals in each cohort then are monitored after the third dose for 7 days, and if there is no observed DLT, then animals are administered the next higher doses. If DLT is observed during a monitoring period for any dose level, a subsequent dose is reduced by a level that is intermediate between the highest tolerated level tested and the minimum toxic level tested.
Structure (SMILES),IC50 (NALM-21),IC50 (K562),further results
CNC(=O)c1ccc(C(=O)Nc2cc(Nc3ncc4cccc(-c5ccc(F)cc5OC(C)C)c4n3)ccc2C)cc1 [Cmpd10],,,"IC50 (ABL1 T315I; class by IC50 values in Table 5, read-out: inhibitor class of ABL(T315I) according to IC50): < 20 nM; IC50 (ABL1 T315I; test compounds, Z′-LYTE, read-out: IC50 values for test compounds, ABL1(T315I)): 3.86 nM; IC50 (ABL1(wt); class by IC50 values in Table 5, read-out: inhibitor class of ABL1(wt) according to IC50): < 20 nM; IC50 (ABL1(wt); test compounds, Z′-LYTE, read-out: IC50 values for test compounds, ABL1(wt)): 11.2 nM"
"Cc1ccc(Nc2ncc3cccc(-c4ccc(F)cc4OC(C)C)c3n2)cc1NC(=O)c1ccc(C(=O)N2CCN(C)CC2)cc1 [Cmpd44, N-(5-((8-(4-fluoro-2-isopropoxyphenyl)quinazolin-2-yl)amino)-2-methylphenyl)-4-(4-methylpiperazine-1-carbonyl)benzamide]",281 nM,300 nM,
"Cc1ccc(Nc2ncc3cccc(-c4ccc(F)cc4OC(C)C)c3n2)cc1NC(=O)CN1CCN(C)CC1 [Cmpd58, N-(5-((8-(4-fluoro-2-isopropoxyphenyl)quinazolin-2-yl)amino)-2-methylphenyl)-2-(4-methylpiperazin-1-yl)acetamide]",134 nM,124 nM,
"Cc1ccc(Nc2ncc3cccc(-c4ccc(F)cc4OC(C)C)c3n2)cc1NC(=O)C1CCN(C)CC1 [Cmpd66, N-(5-((8-(4-fluoro-2-isopropoxyphenyl)quinazolin-2-yl)amino)-2-methylphenyl)-1-methylpiperidine-4-carboxamide]",133 nM,141 nM,"tolerability relative to COM1 ([1]; at doses required to reach the in vitro K562-Luc EC50 plasma levels in vivo, early results): more tolerable than COM1; tolerability ([1]; 1.5 mg/kg, through day 24): well tolerated; tolerability ([1]; 4.5 mg/kg, at day 21): well tolerated; tolerability ([1]; maximum dose of 18 mg/kg, at day 14): well tolerated"
Cc1ccc(C(=O)Nc2ccc(CN3CCN(C)CC3)c(C(F)(F)F)c2)cc1C#Cc1cnc2cccnn12 [ponatinib],3600 nM,3250 nM,

# Reference: patent US20260297035A1, “PROTEIN KINASE INHIBITORS AND USES THEREOF” (DELiver Therapeutics, Inc., priority 2023, published 2026)
